Calls of active or inactive are those of the source.
Key:
[1] = target: T1, Tyrosine-protein phosphatase non-receptor type 22 (Homo sapiens, UniProt Q9Y2R2); type: functional
T1 sequence (Q9Y2R2 whole entry): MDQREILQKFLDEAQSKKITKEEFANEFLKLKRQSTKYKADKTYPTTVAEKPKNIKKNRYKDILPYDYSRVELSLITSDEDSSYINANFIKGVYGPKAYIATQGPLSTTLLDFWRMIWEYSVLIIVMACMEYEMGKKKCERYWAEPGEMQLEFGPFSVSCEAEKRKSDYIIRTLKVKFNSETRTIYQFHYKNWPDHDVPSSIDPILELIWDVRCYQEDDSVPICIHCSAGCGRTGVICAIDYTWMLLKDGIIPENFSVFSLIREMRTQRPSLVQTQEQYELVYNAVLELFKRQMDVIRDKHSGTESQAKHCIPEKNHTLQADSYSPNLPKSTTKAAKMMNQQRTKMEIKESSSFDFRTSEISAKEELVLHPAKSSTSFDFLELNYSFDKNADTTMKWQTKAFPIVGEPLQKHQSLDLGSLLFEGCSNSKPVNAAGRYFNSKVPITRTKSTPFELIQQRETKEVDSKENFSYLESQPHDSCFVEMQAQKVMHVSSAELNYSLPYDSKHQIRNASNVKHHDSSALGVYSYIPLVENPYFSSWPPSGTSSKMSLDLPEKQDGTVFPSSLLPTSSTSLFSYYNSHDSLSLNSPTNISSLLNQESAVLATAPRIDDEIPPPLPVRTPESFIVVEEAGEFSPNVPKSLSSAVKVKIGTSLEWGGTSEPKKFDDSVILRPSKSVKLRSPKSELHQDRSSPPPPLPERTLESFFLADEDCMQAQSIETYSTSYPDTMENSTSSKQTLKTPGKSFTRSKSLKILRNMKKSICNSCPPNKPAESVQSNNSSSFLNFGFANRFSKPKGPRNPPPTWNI

[2] = target: T1, Tyrosine-protein phosphatase non-receptor type 22; type: functional; remark: listed apart in the source
[3] = target: T2, Tyrosine-protein phosphatase non-receptor type 7 (Homo sapiens, UniProt P35236); type: functional
T2 sequence (P35236 whole entry): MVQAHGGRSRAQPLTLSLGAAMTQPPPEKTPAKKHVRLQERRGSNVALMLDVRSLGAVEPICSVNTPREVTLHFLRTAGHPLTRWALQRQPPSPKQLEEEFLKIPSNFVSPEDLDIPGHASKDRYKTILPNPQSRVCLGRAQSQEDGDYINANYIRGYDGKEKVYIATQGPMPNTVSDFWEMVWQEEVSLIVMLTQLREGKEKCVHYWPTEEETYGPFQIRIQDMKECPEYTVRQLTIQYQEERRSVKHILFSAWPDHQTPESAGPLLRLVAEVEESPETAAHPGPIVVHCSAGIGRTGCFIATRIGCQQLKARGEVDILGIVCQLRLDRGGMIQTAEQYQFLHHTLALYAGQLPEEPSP

[4] = Counterscreen for AddAB inhibitors: absorbance-based bacterial cell-based high throughput dose response assay for inhibitors of bacterial viability. [Related pubchem assays (depositor defined):AID435030, AID449728, AID449731, AID488942, AID488955, AID488956]; type: functional
Exodeoxyribonuclease V = target: T3, Exodeoxyribonuclease V (Escherichia coli (strain K12), UniProt P04993+P07648+P08394); assay: E. coli RecBCD inhibitors, dose response, counter-screen for AddAB inhibitor project, absorbance, V66 E. coli, mutant T4 phage (AID 492957); type: functional, cell-based, Escherichia coli str. K-12 substr. MG1655
T3 sequence (P04993 whole entry): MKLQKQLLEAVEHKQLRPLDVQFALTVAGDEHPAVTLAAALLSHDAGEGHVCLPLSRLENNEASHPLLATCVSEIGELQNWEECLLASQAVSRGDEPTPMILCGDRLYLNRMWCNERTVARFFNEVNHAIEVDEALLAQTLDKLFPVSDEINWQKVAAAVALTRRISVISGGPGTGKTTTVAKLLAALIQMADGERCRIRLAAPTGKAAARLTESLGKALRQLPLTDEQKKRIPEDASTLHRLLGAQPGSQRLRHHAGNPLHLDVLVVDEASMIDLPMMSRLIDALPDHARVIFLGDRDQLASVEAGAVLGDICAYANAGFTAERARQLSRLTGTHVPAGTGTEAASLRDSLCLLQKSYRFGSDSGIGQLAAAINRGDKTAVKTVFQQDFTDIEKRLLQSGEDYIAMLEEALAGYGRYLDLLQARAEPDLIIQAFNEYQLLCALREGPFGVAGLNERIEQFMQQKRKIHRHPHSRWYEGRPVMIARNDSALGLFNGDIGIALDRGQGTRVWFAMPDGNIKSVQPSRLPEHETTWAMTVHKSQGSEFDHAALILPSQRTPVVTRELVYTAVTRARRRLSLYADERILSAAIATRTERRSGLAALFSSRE
T3 sequence (P07648 whole entry): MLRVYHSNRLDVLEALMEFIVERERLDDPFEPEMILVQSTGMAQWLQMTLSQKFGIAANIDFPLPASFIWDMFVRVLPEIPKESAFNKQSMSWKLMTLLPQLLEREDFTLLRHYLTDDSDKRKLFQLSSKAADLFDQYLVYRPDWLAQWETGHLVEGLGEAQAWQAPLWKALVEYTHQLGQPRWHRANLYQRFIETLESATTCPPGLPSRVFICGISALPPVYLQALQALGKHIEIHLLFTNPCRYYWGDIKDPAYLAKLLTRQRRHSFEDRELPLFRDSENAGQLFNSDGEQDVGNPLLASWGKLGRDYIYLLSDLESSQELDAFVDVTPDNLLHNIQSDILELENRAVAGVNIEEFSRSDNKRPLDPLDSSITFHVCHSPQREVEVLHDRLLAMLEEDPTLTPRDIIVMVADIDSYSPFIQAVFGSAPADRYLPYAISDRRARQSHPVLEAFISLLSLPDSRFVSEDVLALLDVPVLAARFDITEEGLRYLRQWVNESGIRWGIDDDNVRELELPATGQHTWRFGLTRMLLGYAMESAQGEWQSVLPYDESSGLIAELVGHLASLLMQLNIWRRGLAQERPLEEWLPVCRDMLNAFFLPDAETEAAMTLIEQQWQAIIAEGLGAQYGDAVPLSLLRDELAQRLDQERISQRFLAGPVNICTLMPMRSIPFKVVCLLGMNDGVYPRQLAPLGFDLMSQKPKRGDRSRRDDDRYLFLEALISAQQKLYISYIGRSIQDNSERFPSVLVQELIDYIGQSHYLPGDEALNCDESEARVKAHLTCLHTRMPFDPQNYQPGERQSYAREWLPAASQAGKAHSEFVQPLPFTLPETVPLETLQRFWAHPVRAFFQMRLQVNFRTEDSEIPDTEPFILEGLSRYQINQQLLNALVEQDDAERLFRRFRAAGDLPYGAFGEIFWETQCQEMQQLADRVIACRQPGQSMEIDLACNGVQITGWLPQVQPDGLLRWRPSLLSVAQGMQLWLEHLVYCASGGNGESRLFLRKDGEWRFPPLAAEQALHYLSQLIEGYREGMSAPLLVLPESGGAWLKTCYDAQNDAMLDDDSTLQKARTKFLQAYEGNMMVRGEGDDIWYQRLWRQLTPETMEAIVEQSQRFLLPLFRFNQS
T3 sequence (P08394 whole entry): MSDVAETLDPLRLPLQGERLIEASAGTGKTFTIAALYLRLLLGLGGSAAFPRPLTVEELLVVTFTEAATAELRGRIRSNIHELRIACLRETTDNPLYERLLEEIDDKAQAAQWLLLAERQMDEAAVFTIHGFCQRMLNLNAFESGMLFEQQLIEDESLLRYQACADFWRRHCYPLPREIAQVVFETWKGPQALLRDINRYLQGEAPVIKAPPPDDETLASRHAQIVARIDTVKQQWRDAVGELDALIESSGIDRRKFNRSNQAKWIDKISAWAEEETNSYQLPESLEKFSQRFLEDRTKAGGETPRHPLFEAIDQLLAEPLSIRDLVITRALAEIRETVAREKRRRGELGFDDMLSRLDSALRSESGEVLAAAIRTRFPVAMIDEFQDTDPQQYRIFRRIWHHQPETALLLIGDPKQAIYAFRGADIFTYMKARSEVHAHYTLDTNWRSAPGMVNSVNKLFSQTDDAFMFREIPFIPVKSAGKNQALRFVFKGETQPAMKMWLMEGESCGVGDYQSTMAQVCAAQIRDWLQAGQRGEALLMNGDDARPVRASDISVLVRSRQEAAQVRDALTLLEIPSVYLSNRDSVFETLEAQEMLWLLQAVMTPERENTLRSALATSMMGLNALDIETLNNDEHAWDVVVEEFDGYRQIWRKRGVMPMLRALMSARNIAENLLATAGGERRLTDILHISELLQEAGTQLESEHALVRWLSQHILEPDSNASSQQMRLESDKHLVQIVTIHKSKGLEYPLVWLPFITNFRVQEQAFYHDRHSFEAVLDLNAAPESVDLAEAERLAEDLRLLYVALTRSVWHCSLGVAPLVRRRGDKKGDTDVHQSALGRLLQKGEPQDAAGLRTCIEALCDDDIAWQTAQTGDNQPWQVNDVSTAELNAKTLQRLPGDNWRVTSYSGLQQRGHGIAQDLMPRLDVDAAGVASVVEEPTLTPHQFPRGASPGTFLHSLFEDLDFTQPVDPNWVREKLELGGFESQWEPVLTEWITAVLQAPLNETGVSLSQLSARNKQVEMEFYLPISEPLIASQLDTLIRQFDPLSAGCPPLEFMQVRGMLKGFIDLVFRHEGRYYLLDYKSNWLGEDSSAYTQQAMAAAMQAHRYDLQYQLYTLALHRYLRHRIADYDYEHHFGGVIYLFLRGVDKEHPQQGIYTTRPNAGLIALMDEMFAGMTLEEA

Streptococcus = assay: Group A Streptococcus viability loss, dose response, counter-screen for streptokinase expression inhibitor project, luminescence, BacTiterGlo (AID 1915); type: functional, organism-based;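 further: potency for reduction of bacterial viability or growth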
[5] = tested on: Streptococcus sp. 'group A'; assay: growth inhibition of control SK(-) GAS strain, dose response, counter-screen for streptokinase expression inhibitor project, luminescence, kanamycin, BacTiterGlo, confirmation (AID 1900); type: functional, organism-based
[6] = target: Peroxisome proliferator-activated receptor gamma/Nuclear receptor coactivator 3 (Homo sapiens, UniProt P37231); assay: (§1) TR-FRET dose response biochemical High Throughput Screening assay for agonists of the steroid receptor coactivator 3 (SRC-3) recruitment by the peroxisome proliferator-activated receptor gamma (PPAR gamma): non-selective agonists. [Related pubchem assays: 1301 (Confirmation screen.), 1048 (Primary screen.)]; type: functional
Sequence of Peroxisome proliferator-activated receptor gamma/Nuclear receptor coactivator 3 (P37231 whole entry): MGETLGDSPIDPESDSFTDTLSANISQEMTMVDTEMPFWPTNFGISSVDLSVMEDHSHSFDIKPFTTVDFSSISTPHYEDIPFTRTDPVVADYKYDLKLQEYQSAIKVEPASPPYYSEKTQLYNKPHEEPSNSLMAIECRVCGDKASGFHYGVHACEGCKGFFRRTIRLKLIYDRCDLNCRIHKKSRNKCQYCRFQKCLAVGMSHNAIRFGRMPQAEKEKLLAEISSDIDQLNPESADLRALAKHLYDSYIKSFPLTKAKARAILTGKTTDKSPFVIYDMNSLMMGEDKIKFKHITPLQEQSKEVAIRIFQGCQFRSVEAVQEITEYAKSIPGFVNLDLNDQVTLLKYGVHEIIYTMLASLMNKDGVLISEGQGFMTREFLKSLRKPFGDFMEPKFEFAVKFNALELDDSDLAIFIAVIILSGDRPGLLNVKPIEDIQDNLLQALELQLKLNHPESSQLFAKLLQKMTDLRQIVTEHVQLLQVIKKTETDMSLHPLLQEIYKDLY
Sequence of Peroxisome proliferator-activated receptor gamma/Nuclear receptor coactivator 3 (Q9Y6Q9 whole entry, further chain): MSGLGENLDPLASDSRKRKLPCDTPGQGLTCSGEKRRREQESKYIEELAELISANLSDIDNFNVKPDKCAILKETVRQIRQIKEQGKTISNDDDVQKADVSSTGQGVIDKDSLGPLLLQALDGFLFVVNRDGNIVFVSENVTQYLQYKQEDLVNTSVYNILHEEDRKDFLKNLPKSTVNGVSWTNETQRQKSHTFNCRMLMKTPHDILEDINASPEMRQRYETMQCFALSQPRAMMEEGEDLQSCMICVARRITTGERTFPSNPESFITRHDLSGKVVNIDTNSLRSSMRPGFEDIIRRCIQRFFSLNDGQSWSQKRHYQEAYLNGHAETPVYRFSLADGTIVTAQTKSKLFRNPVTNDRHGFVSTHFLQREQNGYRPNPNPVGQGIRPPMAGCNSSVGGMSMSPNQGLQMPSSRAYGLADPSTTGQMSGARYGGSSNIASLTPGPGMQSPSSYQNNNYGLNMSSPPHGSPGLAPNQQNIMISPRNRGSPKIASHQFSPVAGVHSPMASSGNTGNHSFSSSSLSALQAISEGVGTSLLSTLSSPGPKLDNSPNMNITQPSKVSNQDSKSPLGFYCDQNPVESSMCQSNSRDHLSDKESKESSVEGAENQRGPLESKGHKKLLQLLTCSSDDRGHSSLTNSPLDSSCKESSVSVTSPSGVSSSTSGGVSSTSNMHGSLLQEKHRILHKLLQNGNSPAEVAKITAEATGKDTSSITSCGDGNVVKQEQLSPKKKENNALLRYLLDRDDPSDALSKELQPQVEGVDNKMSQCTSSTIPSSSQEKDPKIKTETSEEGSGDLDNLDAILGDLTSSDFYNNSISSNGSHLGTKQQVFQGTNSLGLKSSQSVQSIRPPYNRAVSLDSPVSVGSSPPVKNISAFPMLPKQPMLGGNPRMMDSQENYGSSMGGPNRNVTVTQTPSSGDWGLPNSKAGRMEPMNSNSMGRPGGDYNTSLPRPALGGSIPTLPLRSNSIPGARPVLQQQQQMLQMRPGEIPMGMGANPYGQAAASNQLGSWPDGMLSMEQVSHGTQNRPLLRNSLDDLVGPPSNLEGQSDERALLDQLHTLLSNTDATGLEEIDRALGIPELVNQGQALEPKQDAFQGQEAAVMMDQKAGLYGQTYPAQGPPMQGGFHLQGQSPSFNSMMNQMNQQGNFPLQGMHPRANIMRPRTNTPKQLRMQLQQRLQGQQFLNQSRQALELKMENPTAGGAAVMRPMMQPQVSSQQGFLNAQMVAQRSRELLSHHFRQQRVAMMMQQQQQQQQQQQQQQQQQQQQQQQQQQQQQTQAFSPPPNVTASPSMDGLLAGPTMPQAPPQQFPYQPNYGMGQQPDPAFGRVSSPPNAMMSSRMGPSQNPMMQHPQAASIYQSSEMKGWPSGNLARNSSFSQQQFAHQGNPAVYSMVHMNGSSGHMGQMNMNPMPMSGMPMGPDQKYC

[7] = target: Peroxisome proliferator-activated receptor gamma/Nuclear receptor coactivator 1 (Homo sapiens, UniProt P37231); assay: as §1, with “1 (SRC-1)” for “3 (SRC-3)”, “assays (depositor defined):AID1300, AID1808, AID504735, AID631]” for “assays: 1301 (Confirmation screen.), 1048 (Primary screen.)]”; type: protein assay
Nonstructural protein 1 = Nonstructural protein 1 (Influenza A virus, UniProt Q194T2); type: functional, Influenza A virus (A/California/07/2009(H1N1))
Sequence of Nonstructural protein 1 (Q194T2 whole entry): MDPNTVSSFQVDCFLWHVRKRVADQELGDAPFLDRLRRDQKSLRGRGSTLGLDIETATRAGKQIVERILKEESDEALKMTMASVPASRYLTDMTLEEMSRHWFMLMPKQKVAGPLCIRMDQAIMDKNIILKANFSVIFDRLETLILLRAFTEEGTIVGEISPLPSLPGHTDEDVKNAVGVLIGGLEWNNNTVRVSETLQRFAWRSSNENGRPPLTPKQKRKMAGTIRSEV

Streptokinase A = target: T4, Streptokinase A (Streptococcus pyogenes serotype M1, UniProt P10520); assay: S. pyogenes streptokinase expression inhibitors, potency, dose response, plasminogen activation absorbance, OD405 (AID 1914); type: functional, Streptococcus pyogenes M1 GAS;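 further: secreted streptokinase activity via plasminogen activation per viability signal from cell pellet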
T4 sequence (P10520 whole entry): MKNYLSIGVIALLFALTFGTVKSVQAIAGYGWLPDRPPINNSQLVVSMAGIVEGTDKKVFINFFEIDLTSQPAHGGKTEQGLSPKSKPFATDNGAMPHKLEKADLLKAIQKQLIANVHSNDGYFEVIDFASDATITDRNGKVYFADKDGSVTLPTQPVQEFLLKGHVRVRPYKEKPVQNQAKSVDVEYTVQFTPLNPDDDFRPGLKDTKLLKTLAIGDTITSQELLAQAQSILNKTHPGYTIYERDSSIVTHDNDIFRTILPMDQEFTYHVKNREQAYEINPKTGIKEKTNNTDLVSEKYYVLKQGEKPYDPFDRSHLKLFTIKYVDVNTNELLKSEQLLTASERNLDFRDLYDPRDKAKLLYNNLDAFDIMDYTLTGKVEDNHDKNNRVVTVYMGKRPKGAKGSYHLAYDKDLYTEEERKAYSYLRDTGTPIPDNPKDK

[8] = target: Peroxisome proliferator-activated receptor gamma/Nuclear receptor coactivator 2 (Homo sapiens, UniProt P37231); assay: TR-FRET dose response biochemical High Throughput Screening assay for agonists of the steroid receptor coactivator 2 (SRC-2) recruitment by the peroxisome proliferator-activated receptor gamma (PPAR gamma): non-selective agonists. [Related pubchem assays: 1297, 1032 ]; type: functional
Sequence of Peroxisome proliferator-activated receptor gamma/Nuclear receptor coactivator 2 (P37231 whole entry): as the sequence (P37231 whole entry) above
Sequence of Peroxisome proliferator-activated receptor gamma/Nuclear receptor coactivator 2 (Q15596 whole entry, further chain): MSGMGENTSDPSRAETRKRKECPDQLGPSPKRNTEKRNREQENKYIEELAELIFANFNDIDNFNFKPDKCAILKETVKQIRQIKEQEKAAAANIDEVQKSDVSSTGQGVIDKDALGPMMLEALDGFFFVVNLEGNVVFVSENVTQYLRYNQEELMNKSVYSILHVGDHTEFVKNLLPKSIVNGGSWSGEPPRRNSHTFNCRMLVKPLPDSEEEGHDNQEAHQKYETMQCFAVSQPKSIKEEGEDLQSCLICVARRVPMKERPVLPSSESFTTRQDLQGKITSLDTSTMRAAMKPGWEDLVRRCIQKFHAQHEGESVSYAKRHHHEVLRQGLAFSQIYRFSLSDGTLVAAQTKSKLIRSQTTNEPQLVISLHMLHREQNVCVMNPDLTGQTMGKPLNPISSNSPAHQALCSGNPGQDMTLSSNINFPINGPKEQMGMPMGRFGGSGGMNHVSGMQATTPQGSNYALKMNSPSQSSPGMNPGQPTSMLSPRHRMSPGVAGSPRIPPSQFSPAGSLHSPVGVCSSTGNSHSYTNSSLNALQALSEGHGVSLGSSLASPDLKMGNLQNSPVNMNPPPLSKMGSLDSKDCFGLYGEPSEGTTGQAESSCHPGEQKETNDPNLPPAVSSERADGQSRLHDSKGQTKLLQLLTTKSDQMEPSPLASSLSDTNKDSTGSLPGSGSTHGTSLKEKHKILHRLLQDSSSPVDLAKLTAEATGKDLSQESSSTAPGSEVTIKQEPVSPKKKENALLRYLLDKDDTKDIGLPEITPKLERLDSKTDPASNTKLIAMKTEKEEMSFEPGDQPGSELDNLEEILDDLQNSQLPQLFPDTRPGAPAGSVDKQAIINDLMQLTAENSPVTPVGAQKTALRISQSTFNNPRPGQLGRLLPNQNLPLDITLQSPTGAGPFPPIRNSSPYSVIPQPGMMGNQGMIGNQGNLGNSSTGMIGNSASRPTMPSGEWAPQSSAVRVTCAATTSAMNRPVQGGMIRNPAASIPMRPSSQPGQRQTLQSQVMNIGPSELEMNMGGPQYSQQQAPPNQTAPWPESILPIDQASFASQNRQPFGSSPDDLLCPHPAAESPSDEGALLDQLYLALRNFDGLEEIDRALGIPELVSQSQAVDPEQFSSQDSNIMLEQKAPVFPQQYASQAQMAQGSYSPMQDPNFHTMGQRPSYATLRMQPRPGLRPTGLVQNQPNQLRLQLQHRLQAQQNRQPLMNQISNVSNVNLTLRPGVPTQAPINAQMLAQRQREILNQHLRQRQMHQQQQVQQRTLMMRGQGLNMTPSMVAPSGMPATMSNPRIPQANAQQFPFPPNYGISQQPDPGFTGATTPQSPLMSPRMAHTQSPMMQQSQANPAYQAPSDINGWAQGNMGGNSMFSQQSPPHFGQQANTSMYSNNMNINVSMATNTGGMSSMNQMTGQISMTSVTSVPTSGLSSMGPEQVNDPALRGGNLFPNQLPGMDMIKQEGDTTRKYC

CCOC(=O)C(NC(=O)CCl)(Nc1ccc(C(O)(C(=O)OCC)C(F)(F)F)cc1)C(F)(F)F (stereo not drawn)
IC50 [1]: > 79.4 µM (inactive)
IC50 [2]: > 79.4 µM (inactive)
IC50 [3]: > 79.4 µM (inactive)

O=C(Nc1ccc2[nH]c(O)nc2c1)c1ccc([N+](=O)[O-])o1
IC50 [4]: 29 µM (inactive)
IC50 (Exodeoxyribonuclease V): > 119 µM (inactive)

O=C(NNC(=O)c1cccc(Br)c1)C(=O)N1CCCCC1
IC50 [1]: > 79.4 µM (inactive)
IC50 [2]: > 79.4 µM (inactive)
IC50 [3]: > 79.4 µM (inactive)

CCCCC(C(=O)OCC)C(N)Cc1ccc(F)cc1 (stereo not drawn)
IC50 [1]: > 79.4 µM (inactive)
IC50 [2]: > 79.4 µM (inactive)
IC50 [3]: > 79.4 µM (inactive)

CC12CCC(C(=O)N(CSC(=S)N/N=C\c3ccccc3O)C1=O)C2(C)C (stereo not drawn)
EC50 (Streptococcus): 5.29 µM (active)
EC50 [5]: 2.43 µM (active)
EC50 [6]: 34.9 µM (not active)
EC50 [7]: 7.15 µM (active)
IC50 (Nonstructural protein 1): 2.09 µM (active)
EC50 (Streptokinase A): > 150 µM (not active)
EC50 [8]: 7.31 µM (active)

Reference: ChEMBL document CHEMBL1201862, “PubChem BioAssay data set” (2004)
